The text below walks through data of PubChem BioAssay (NCI).

“And” between values parts separate entries of the source, which are not always exact repeats. Equal entries are not always repeated.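 Cultured in 96-well plates, cells were exposed to test compound for 48 hours across five concentrations. GI50 marks 50% less growth. TGI denotes the concentration required for complete inhibition of growth.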

The first assay has as its system SK-OV-3 ovarian. Put plainly: growth of human tumour cells (NCI), 48 h.
Turning to `O=C(COc1ccc(/C=C2\Oc3ccccc3C2=O)cc1)Nc1nc2ccccc2s1`, the GI50 is 61.7 µM and the TGI is more than 100 µM.
Take `CC12OC(=O)C(C#N)C1(C)C1C(=O)CCCC12` (centres undefined): the TGI was more than 100 µM.
Still for that read-out and setting: the same measure for `CCc1cccc(CC)c1NC(=O)/C(Cl)=C(/Cl)C(=O)O`: more than 100 µM.
For `O=[N+]([O-])c1ccc(-c2ccc(C3=Nn4c(CNc5ccccc5Cl)nnc4SC3)o2)cc1`, the TGI was more than 100 µM.
Consider `Cc1cc(Br)c(NC(=O)c2c(-c3c(Cl)cccc3Cl)noc2C)c(Br)c1`, for which the GI50 was more than 100 µM and the TGI is more than 100 µM.
Take `OCC1CC[N-]CC1.OCC1CC[N-]CC1.[Cl][Pt+2]([Cl])([Cl])[Cl]`: the GI50 is 36.9 µM.
As for `CC(=O)OCC(=O)[C@@]1(O)CC[C@H]2[C@@H]3C[C@H](C)C4=CC(=O)C=C[C@]4(C)[C@@]3(F)[C@@H](O)C[C@@]21C`, the TGI is more than 100 µM.
On to `OCCCCC#Cc1ccccc1C#Cc1cccc(C(F)(F)F)c1`, for which the GI50 is 19.7 µM and the TGI amounted to 35.3 µM.
With `Nc1nc(=S)c2c(ncn2CCO)[nH]1`, the TGI is more than 100 µM.
On to `CC(C)Cc1ccc(C(C)/C=C2\CCC(CN(C)C)C2=O)cc1` (centres undefined), for which the TGI was 36.5 µM.

A further assay has as its system SNB-19 CNS. The experiment in a line: growth of human tumour cells (NCI), 48 h.
Consider `CCSCC1CC(O)(c2ccccc2)C(c2ccccc2)C(c2ccc(F)cc2)O1` (centres undefined), for which the GI50 is 2.05 µM and the TGI stood at 7.6 µM.
Compound `CCO/C=C1\SC(=S)N(c2ccc(OCC)cc2)C1=O` came in with a TGI of more than 100 µM.
`Nc1nc(=S)c2ncn(C3OC(COP(=O)(O)O)C(O)C3O)c2[nH]1` (centres undefined): the GI50 is more than 100 µM and the TGI is more than 100 µM.
For `NC(N)=NCCCC(NCc1c2ccccc2nc2ccccc12)C(=O)O` (centres undefined), the TGI was more than 100 µM.
For `CC(=O)O[C@H]1CC2C(C3CC[C@H](C(C)CCC(=O)O)[C@]31C)[C@H](OC(C)=O)C[C@@H]1CC3(CC[C@]21C)OOC1(CCC(C)CC1)OO3` (some centres undefined), the GI50 is 7.57 µM and 3.57 µM; the TGI was 20.1 µM and 14.7 µM.
As for `Cc1cnc(C(=O)NNc2nc3sc4c(c3c(=O)[nH]2)C(C)CCC4)cn1` (centres undefined), the GI50 is 1.29 µM and the TGI is more than 100 µM.
Consider `O=C1c2ccccc2C(=O)c2c(NC3CCCCC3)ccc(Nc3ccc(S(=O)(=O)O)cc3)c21`, for which the TGI is more than 100 µM.
On to `CN(C)c1ccc(-c2cc(-c3ccc(Nc4nc(Nc5ccc(Cl)cc5)nc(Nc5ccc(Cl)cc5)n4)cc3)nc(N)c2C#N)cc1`, for which the GI50 is more than 100 µM and the TGI is more than 100 µM.
Regarding `COCCN(Cc1ccc(F)cc1)c1ccc(CO)c(Cl)c1`, the GI50 is 33.4 µM and the TGI was more than 100 µM.
For `O=C(COc1ccc(/C=C2\Oc3ccccc3C2=O)cc1)Nc1nc2ccccc2s1`, in that order: 41.4 µM and more than 100 µM.
`CC12OC(=O)C(C#N)C1(C)C1C(=O)CCCC12` (centres undefined): the TGI was more than 100 µM.
Still for that read-out and setting: the same measure for `CCc1cccc(CC)c1NC(=O)/C(Cl)=C(/Cl)C(=O)O`: more than 100 µM.
Same read-out and setting: as for `O=[N+]([O-])c1ccc(-c2ccc(C3=Nn4c(CNc5ccccc5Cl)nnc4SC3)o2)cc1`, the figure is more than 100 µM.
With `Cc1cc(Br)c(NC(=O)c2c(-c3c(Cl)cccc3Cl)noc2C)c(Br)c1`, the GI50 was more than 100 µM and the TGI is more than 100 µM.
As for `OCC1CC[N-]CC1.OCC1CC[N-]CC1.[Cl][Pt+2]([Cl])([Cl])[Cl]`, the GI50 was 48 µM.
Regarding `CC(=O)OCC(=O)[C@@]1(O)CC[C@H]2[C@@H]3C[C@H](C)C4=CC(=O)C=C[C@]4(C)[C@@]3(F)[C@@H](O)C[C@@]21C`, the TGI was more than 100 µM.
For `OCCCCC#Cc1ccccc1C#Cc1cccc(C(F)(F)F)c1`, the GI50 was 20.2 µM and the TGI stood at 36.4 µM.
The compound `Nc1nc(=S)c2c(ncn2CCO)[nH]1` yielded a TGI of more than 100 µM.
The compound `CC(C)Cc1ccc(C(C)/C=C2\CCC(CN(C)C)C2=O)cc1` (centres undefined) came in with a TGI of 26.3 µM.

The subject of the next assay is TK-10 renal. Put plainly: growth of human tumour cells (NCI), 48 h.
On to `CCSCC1CC(O)(c2ccccc2)C(c2ccccc2)C(c2ccc(F)cc2)O1` (centres undefined), for which the GI50 was 2.6 µM and the TGI came to 7.28 µM.
As to `CCO/C=C1\SC(=S)N(c2ccc(OCC)cc2)C1=O`, the TGI is more than 100 µM.
For the compound `Nc1nc(=S)c2ncn(C3OC(COP(=O)(O)O)C(O)C3O)c2[nH]1` (centres undefined), the GI50 is 1.89 µM and the TGI was more than 100 µM.
Compound `NC(N)=NCCCC(NCc1c2ccccc2nc2ccccc12)C(=O)O` (centres undefined) yielded a TGI of more than 100 µM.
Take `CC(=O)O[C@H]1CC2C(C3CC[C@H](C(C)CCC(=O)O)[C@]31C)[C@H](OC(C)=O)C[C@@H]1CC3(CC[C@]21C)OOC1(CCC(C)CC1)OO3` (some centres undefined): the GI50 is 18.6 µM and 3.08 µM; the TGI is 33 µM and 9.19 µM.
As for `Cc1cnc(C(=O)NNc2nc3sc4c(c3c(=O)[nH]2)C(C)CCC4)cn1` (centres undefined), the GI50 was 1.99 µM and the TGI is 39.7 µM.
For the compound `O=C1c2ccccc2C(=O)c2c(NC3CCCCC3)ccc(Nc3ccc(S(=O)(=O)O)cc3)c21`, the TGI was more than 100 µM.
Turning to `CN(C)c1ccc(-c2cc(-c3ccc(Nc4nc(Nc5ccc(Cl)cc5)nc(Nc5ccc(Cl)cc5)n4)cc3)nc(N)c2C#N)cc1`, the GI50 is 53.8 µM and the TGI was more than 100 µM.
For `COCCN(Cc1ccc(F)cc1)c1ccc(CO)c(Cl)c1`, in that order: 0.271 µM and 1.66 µM.
For `O=C(COc1ccc(/C=C2\Oc3ccccc3C2=O)cc1)Nc1nc2ccccc2s1`, in that order: more than 84.8 µM and more than 100 µM.
The compound `CC12OC(=O)C(C#N)C1(C)C1C(=O)CCCC12` (centres undefined) registered a TGI of more than 100 µM.
Consider `CCc1cccc(CC)c1NC(=O)/C(Cl)=C(/Cl)C(=O)O`, for which the TGI was 50.2 µM.
Still for that read-out and setting: as for `O=[N+]([O-])c1ccc(-c2ccc(C3=Nn4c(CNc5ccccc5Cl)nnc4SC3)o2)cc1`, the figure is more than 100 µM.
In the case of `Cc1cc(Br)c(NC(=O)c2c(-c3c(Cl)cccc3Cl)noc2C)c(Br)c1`, the GI50 is more than 100 µM and the TGI is more than 100 µM.
Regarding `OCC1CC[N-]CC1.OCC1CC[N-]CC1.[Cl][Pt+2]([Cl])([Cl])[Cl]`, the GI50 was 37.3 µM.
`CC(=O)OCC(=O)[C@@]1(O)CC[C@H]2[C@@H]3C[C@H](C)C4=CC(=O)C=C[C@]4(C)[C@@]3(F)[C@@H](O)C[C@@]21C`: the TGI is more than 100 µM.
Turning to `OCCCCC#Cc1ccccc1C#Cc1cccc(C(F)(F)F)c1`, the GI50 was 16.9 µM and the TGI came to 32.2 µM.
`Nc1nc(=S)c2c(ncn2CCO)[nH]1` displayed a TGI of more than 100 µM.
The same measure, in the same setting: as for `CC(C)Cc1ccc(C(C)/C=C2\CCC(CN(C)C)C2=O)cc1` (centres undefined), the figure is 18.9 µM.
